# According to patent US8022043B2, “Ceramide derivatives as modulators of immunity and autoimmunity” (Albert Einstein College of Medicine of Yeshiva University, priority 2004, dated 2011):
# Experiments:
# [1] = system: Bulk splenocytes from C57BL/6 mice; assay: Cytokine response of splenocyte cultures (IL-4 and IFNγ ELISA); assay type: cell-based; set-up: IL-4 levels compared with DB01-1: dose or concentration left out as unconfirmed; settings: in vitro splenocyte cultures
# [2] = system: Bulk splenocytes from C57BL/6 mice; assay: Splenocyte proliferation assay (3H-thymidine incorporation); assay type: cell-based; settings: FIG. 5D
# Experimental: The results were obtained using a splenocyte proliferation assay according to the following procedure: Bulk splenocytes from C57BL/6 mice were plated at 300,000 per well in 96-well flat-bottom tissue culture plates with the indicated ceramide-like glycolipid diluted in complete medium to the concentrations shown. After 48 h at 37° C., the plate wells were pulsed with 20 microliters of medium containing 50 microCi/ml ^3H-thymidine and incubated for a further 18 h. Cell proliferation was estimated by harvesting pulsed cells onto 96-well filtermats and scintillation counting on a 1450 Microbeta Trilux instrument (Wallac/Perkin Elmer, Boston, Mass.).
# mice = settings: administered in vivo to mice; cited from earlier work
# [3] = system: mouse model of experimental allergic encephalomyelitis (EAE); settings: compared with KRN7000; cited from earlier work
# human NKT cell clones = assay: Human in vitro NKT cell assay system; assay type: cell-based; settings: proliferative responses and cytokine secretion
# Excerpt: For example, DB03-4 and DB03-5 are active in stimulation of human NKT cell clones in vitro, and elicits proliferative responses and cytokine secretion when evaluated using culture systems previously established in the literature (See, e.g., Spada F M, Sugita M, Watts G F M, Koezuka Y, and Porcelli S A. Low expression but potent antigen presenting function of CD1d on monocyte lineage cells, Eur. J. Immunol., 30:3468-3477 (2000), and Spada F M, Koezuka Y, Porcelli S A, CD1d-restricted recognition of synthetic glycolipid antigens by human NK T cells. J Exp Med; 188:1529-1534 (1998), see also, Lee P T et al., J Clin Invest., 2002 September; 110(6):793-800. […] Acad. Sci. (USA), 102:3383-8 (2005)).
# [4] = system: T cell antigen receptors of human NKT cells; assay: Glycolipid human CD1d tetramer binding; settings: normal blood specimens
# NOD mice = assay: Prevention of type 1 diabetes in NOD mice; assay type: in vivo; settings: i.p. once per week, 200 micrograms/kg; comparator DB01-1 (indicated as KRN7000)
# Experimental: Cohorts of 6-8 female NOD mice were treated with placebo (vehicle) or DB01-1 (indicated as KRN7000), DB03-4 or DB03-5 injections once weekly beginning at 4-5 weeks of age. Treatment was discontinued after 5 injections (DB03-4) or 7 injections (DB03-5). Top graphs show incidence of glycosuria, and bottom graphs show survival in each cohort.
# Given the widely held belief that selective augmentation of IL-4 production can be protective or therapeutic in the setting of many autoimmune diseases, we have initiated studies to examine the efficacy of compounds such as DB03-4 and DB03-5 in diabetes prone NOD mice. […] The results reported in FIG. 10 were obtained by treating three groups, each consisting of 9-12 female NOD mice, starting from age 5 weeks with a ceramide-like glycolipid. The indicated ceramide-like glycolipids (DB03-4, DB03-5, or KRN7000) were injected i.p. once per week in a dose of 200 micrograms/kg. Treatment was discontinued at 11 weeks of age, and the mice were monitored weekly for glucosuria (top) and death (bottom).
# For experiments involving in vivo treatment of mice with the ceramide-like glycolipids, the ceramide-like glycolipids were administered by i.p. or i.v. injection in 0.2 ml PBS+0.025% Tween-20, or in vehicle alone. A typical dose is about 4-5 nmoles per animal per injection. […]
# C57BL/6 mice = assay: Serum IL-4 and IFNγ after a single i.p. injection; assay type: in vivo
# Experimental: Serum levels of L-4 and IFNγ after a single injection of DB01-1, DB03-4, or DB03-5 are shown. C57BL/6 mice (11-13 weeks old) were given a single i.p. injection of 4.8 nanomoles of the compounds or phosphate buffered saline (PBS)/vehicle control. Serum cytokine levels were measured 2 and 20 hours later by capture ELISA. Bars show means of three mice, with standard deviation. Note that DB01-1 has nearly identical structure to KRN7000 (C24 fatty acid as compared to C26) and has activity that is indistinguishable from KRN7000 in multiple bioassays. We use DB01-1 as a “KRN7000 mimic” because it has been synthesized by our group and is readily available for our studies, and KRN7000 was unavailable due to license restrictions.
# A most intriguing property of KRN7000 analogues is that in some cases they may elicit immune responses that are qualitatively different from those that occur following stimulation with the parent compound. […] This selective activation of IL-4 production by NK T cells was proposed to be the basis for the enhanced therapeutic effects of OCH in the EAE model of central nervous system autoimmune disease. We have observed a similar in vivo effect on the nature of the NK T cell response using several of our ceramide-like glycolipids. […] These responses are similar to those seen for DB01-1, an analogue that is structurally almost identical to KRN7000 (C24 fatty acid instead of C26, otherwise identical) and indistinguishable in terms of its activity in our hands. […] This selective IL-4 induction is virtually identical to that reported for the OCH analogue, and thus illustrates the potential for amino substituted analogues of KRN7000 to induce qualitatively different immunomodulatory effects in vivo. The results reported in FIG. 9 were obtained by measuring serum levels of IL-4 and IFNγ after administering a single injection of […], DB03-4, or DB03-5 to C57BL/6 mice. C57BL/6 mice (11-13 weeks old) were given a single i.p. injection of 4.8 nanomoles of the ceramide-like glycolipids or PBS/vehicle control. Serum cytokine levels were measured 2 and 20 hours later by capture ELISA. Bars show means of three mice, with standard deviation.
# For experiments involving in vivo treatment of mice with the ceramide-like glycolipids, the ceramide-like glycolipids were administered by i.p. or i.v. injection in 0.2 ml PBS+0.025% Tween-20, or in vehicle alone. A typical dose is about 4-5 nmoles per animal per injection. Representative references for administering an α-galactosyl ceramide to mice by i.p., i.v. or p.o. routes are S. Sharif et al., Activation of natural killer T cells by alpha-galactosylceramide treatment prevents the onset and recurrence of autoimmune Type 1 diabetes, Nat. Med., Sep. 7, 2001, (9):1057-62 and K. Miyamoto et al., A synthetic glycolipid prevents autoimmune encephalomyelitis by inducing TH2 bias of natural killer T cells, Nature. Oct. 4, 2001, 413(6855):5314.
# iNKT cells = assay: In vitro cytokine modulation, murine cell assay system; assay type: cell-based; settings: for in vitro activity at modulating cytokines: murine cell assay system
# Excerpt: The term iNKT cells, as used herein, mean the specific subset of CD1d-dependent T cells that expresses the invariant TCRα chain rearrangement consisting of Vα14-Jα18 in mice, and Vα24-Jα18 in humans. These cells are uniformly reactive to α-galactosylceramides presented by CD1d. These cells are also referred to as “Type 1” NKT cells, and the distinction between the different types of NKT cells and the nomenclature relating to this are summarized in the publication by Godfrey et al., Nat Rev Immunol. 2004 March; 4(3):231-7. Methods for determining cytokine production by iNKT cells in response to CD1d-presented glycolipids for determination of strong or weak agonist activity are described in Yu K O A, Im J S, Molano A, Dutronc Y, Illarionov P A, Forestier C, Fujiwara N, Arias I, Miyake S, Yamamura T, Chang Y-T, Besra G S, Porcelli S A, Modulation of CD1d-restricted NKT cell responses using N-acyl variants of α-galactosylceramides, Proc. Nat. Acad. Sci. (USA), 102:3383-8 (2005), see also Godfrey D I et al., Nat Rev Immunol. 2004 March; 4(3):231-7.
# NK T cells = assay: NK T cell activation screens (Example, FIG. 5 and Table 1); assay type: cell-based; settings: see Example
# Excerpt: Using these methods, we produced more than 60 novel amino substituted analogues of KRN7000. These were screened in a functional assay that assessed the ability of the compounds to activate NK T cell hybridomas in the presence of various types of cells expressing CD1d, or in the presence of recombinant CD1d proteins bound to the tissue culture plate surface (FIG. 5).
# NK T hybridoma DN32.D3 [5] = assay: Murine NK T cell hybridoma stimulation assay (IL-2 release), RMA-S.mCD1d as APC; assay type: cell-based, mouse; settings: presented by RMA-S/CD1d cells
# Experimental: FIG. 5. […] NK T hybridoma DN32.D3 was cultured with CD1d-transfected RMA-S cells in microtiter plate wells. Each ceramide-like glycolipid was titrated over a concentration range from 0.5-500 nM, and supernatants were harvested after 24 hours for measurement of IL-2 release. Units of activity were calculated as the reciprocal of the concentration of ceramide-like glycolipid required to give a half maximal release of IL-2, and all values were normalized to the activity of KRN7000 (defined as 1 Unit). The dotted line indicates the level of activity for KRN7000. The structures of two ceramide-like glycolipids with markedly elevated activity relative to KRN7000 are shown.
# The ability of the compounds to activate NK T cell hybridomas in the presence of various types of cells expressing CD1d reported in FIG. 5A was determined using a murine NK T cell hybridoma stimulation assay. […] Relative potencies of the ceramide-like glycolipids were calculated from the reciprocal effective concentrations at half-maximal response (1/EC50), and expressed as units by normalization to the observed potency for KRN7000.
# IL-2 production by NK T hybridoma DN32D3 in response to eight selected ceramide-like glycolipids, was determined using three different cell types as antigen presenting cells. […]
# NK T hybridoma DN32.D3 [6] = assay: Murine NK T cell hybridoma stimulation assay (IL-2 release), HeLa.hCD1d as APC; assay type: cell-based, mouse
# Experimental: (§1) The ability of the compounds to activate NK T cell hybridomas in the presence of various types of cells expressing CD1d reported in FIG. 5A was determined using a murine NK T cell hybridoma stimulation assay. CD1d-transfected RMA-S cells were plated at 50,000 cells/well in flat-bottom tissue culture plates in 100 microliters complete medium containing varying concentrations of ceramide-like glycolipids for 6 h at 37° C. The plates were then centrifuged (430 g, 3 min), and cells washed with PBS three times. Fifty thousand NKT hybridoma cells (clone DN3A4.1-2) were then added in 100 microliters of medium for a 12 h stimulation. Cell-free supernatants were collected at the end of incubation and assayed for IL-2 by standard capture ELISA. Relative potencies of the ceramide-like glycolipids were calculated from the reciprocal effective concentrations at half-maximal response (1/EC50), and expressed as units by normalization to the observed potency for KRN7000.
# (§2) IL-2 production by NK T hybridoma DN32D3 in response to eight selected ceramide-like glycolipids, was determined using three different cell types as antigen presenting cells. RMA-S.mCD1d are a mouse lymphoma line that has been transfected to express murine CD1d. JAWS II is a mouse dendritic cell line that naturally expresses mouse CD1d. HeLa.hCD1d is a human cervical carcinoma cell line that has been transfected to express human CD1d. […]
# NK T hybridoma DN32.D3 [7] = assay: Murine NK T cell hybridoma stimulation assay (IL-2 release), JAWS II as APC; assay type: cell-based, mouse; settings: dendritic cell line JAWS-II as antigen presenting cell
# Experimental: as §1, §2
# [8] = system: splenocytes from NZB/W F1 mice; assay: Cytokine induction in vitro with splenocytes from NZB/W F1 mice; assay type: cell-based
# splenocyte cultures = assay: Splenocyte cultures (DB03-6); assay type: cell-based
smiles,measurement,setting,value
CCCCCCCCCCCCCCCCCCCCCCCC(=O)N[C@@H](COC1OC(CO)C(O)C(O)C1O)[C@H](O)[C@H](O)CCCCCCCCCCCCCC (stereo partly shown) [DB02-1],IL-4 levels compared with DB01-1,[1],nearly equivalent
same,IFNγ levels compared with DB01-1,[1]; all concentrations,markedly lower
same,CD1d-dependent proliferation,[2],stimulation of CD1d-dependent proliferation
CCCCCCCCCCCCCCCCCCCCCCCC(=O)N[C@@H](COC1OC(CO)C(O)C(O)C1O)[C@H](O)[C@H](O)CCCCC (stereo partly shown) [OCH],IFNγ production in vivo,mice,failed to stimulate the strong production of interferon-γ
same,IL-4 production in vivo,mice,selective production of interleukin-4
same,suppression of autoimmunity in EAE,[3],enhanced ability to suppress autoimmunity
CCCCC/C=C\C/C=C\C/C=C\C/C=C\CCCC(=O)N[C@@H](COC1OC(CO)C(O)C(O)C1O)[C@H](O)[C@H](O)CCCCCCCCCCCCCC (stereo partly shown) [DB03-5],stimulation of human NKT cell clones,human NKT cell clones,active
same,binding of glycolipid human CD1d tetramers to human NKT cells,[4],bind strongly
same,prevention of diabetes in NOD mice compared with KRN7000,NOD mice,superior to KRN7000
same,serum IFNγ response,C57BL/6 mice; 20 hours after single i.p. injection of 4.8 nanomoles,not seen
same,serum IL-4 response,C57BL/6 mice; two hours after single i.p. injection of 4.8 nanomoles,strong IL-4 response
same,cytokine bias,iNKT cells,bias towards inducing Type 2 cytokines
same,IL-4 induction,iNKT cells; in vitro,strong inducers of IL-4
same,IFNγ induction,"iNKT cells; in vitro, DB03-3: in some murine strains",blunted IFNγ
same,in vitro activity at modulating cytokines,iNKT cells,show in vitro activity
CCCCCCCCCCCCCC[C@@H](O)[C@@H](O)[C@H](COC1OC(CO)C(O)C(O)C1O)NC(=O)C(c1ccccc1)c1ccccc1 (stereo partly shown) [YTC03-17],effectiveness of compound,NK T cells,Particularly effective
same,potency relative to KRN7000 (IL-2 production),NK T hybridoma DN32.D3 [5],markedly more potent than KRN7000
same,potency relative to KRN7000 (IL-2 production),NK T hybridoma DN32.D3 [6]; presented by HeLa (human CD1d) cells,presented about equally
same,response (IL-2 production),NK T hybridoma DN32.D3 [7],very little or no response at all
same,agonist activity on iNKT cells,iNKT cells; in vitro,strong agonist activity
same,in vitro activity at modulating cytokines,iNKT cells,show in vitro activity
CCCCCCCCCCCCCC[C@@H](O)[C@@H](O)[C@H](COC1OC(CO)C(O)C(O)C1O)NC(=O)CCCCCC (stereo partly shown) [YTC03-25],effectiveness of compound,NK T cells,Particularly effective
same,IL-4 induction relative to IFNγ,[8],enhanced IL-4 induction relative to IFNγ
CCCCCCCCCCCCCC[C@@H](O)[C@@H](O)[C@H](COC1OC(CO)C(O)C(O)C1O)NC(=O)Cc1ccc(F)cc1 (stereo partly shown) [YTC03-30],potency greater than KRN7000,NK T hybridoma DN32.D3 [6]; presented by HeLa cells,at least 100 fold
CC/C=C\C/C=C\C/C=C\C/C=C\C/C=C\CCCC(=O)N[C@@H](COC1OC(CO)C(O)C(O)C1O)[C@H](O)[C@H](O)CCCCCCCCCCCCCC (stereo partly shown) [DB03-6],IL-2 induction,splenocyte cultures,minimal IL-2 induction
same,IL-4 relative to IFNγ,splenocyte cultures,apparent enhancement of IL-4 relative to IFNγ
same,agonist activity,splenocyte cultures,agonist
CCCCCCCCCCCCCC[C@@H](O)[C@@H](O)[C@H](COC1OC(CO)C(O)C(O)C1O)NC(=O)Cc1ccc(OC)c(OC)c1 (stereo partly shown) [YTC03-24],IL-4 induction relative to IFNγ,[8],enhanced IL-4 induction relative to IFNγ
